Common to all, as to assay: growth of human tumour cells (NCI), 48 h
The test system of assay [1] is NCI-H522.
The test system of assay [2] is SNB-19.
The test system of assay [3] is K562.
Assay [4] has as its system SF-539.
For assay [5], the system named is SK-OV-3.
Assay [6] deals with SK-MEL-5.
The test system of assay [7] is SF-295.
In assay [8] the test system is NCI-H23.
The subject of assay [9] is ACHN.
Assay [10] concerns CAKI-1.
For assay [11], the system named is UACC-257.
Assay [12] concerns UO-31.
For assay [13], the system named is OVCAR-3.
In assay [14] the test system is OVCAR-8.
Assay [15] relates to SW-620.
Assay [16] has as its system RPMI-8226.
In assay [17] the test system is HCT-15.
The subject of assay [18] is HL-60.
Assay [19] relates to OVCAR-4.
Assay [20] has as its system EKVX.

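Growth conditions: 96-well plates. Treatment: test compound, 48 hours, 5 concentrations. Analysis: linear interpolation between bracketing concentrations; unreached endpoints set to highest concentration. GI50: concentration for 50% inhibition of growth.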 Active and inactive are the calls of the source. No stated cut-off is given here; in the data, active = GI50 up to about 1.1 µM and inactive = higher.

Regarding `N#CC1(C#N)C2C=CC(C3CCC=C32)C1(C#N)C#N` (configuration not stated), the GI50 in assay [1] was 2.96 µM (inactive); in [2], > 10 µM (inactive); in [3], 3.37 µM (inactive); in assay [4] it was > 10 µM (inactive); in assay [5], > 10 µM (inactive); in [6] it was > 10 µM (inactive). The GI50 was > 10 µM (inactive) in assay [7]; > 10 µM (inactive) in assay [8]; > 6.37 µM (inactive) in [9]; 6.37 µM (inactive) in assay [10]; > 10 µM (inactive) in [11]; > 4.32 µM (inactive) in assay [12]. The GI50 is > 10 µM (inactive) in assay [13]; > 10 µM (inactive) in assay [14]; 1.77 µM (inactive) in assay [15]; 2.83 µM (inactive) in assay [16]; more than 10 µM in [17]; 1.68 µM (inactive) in assay [18]. The GI50 in [19] and in assay [20] was > 10 µM (inactive) in each case.
As to `CC1(C)COC2C(N(Cc3ccccc3)Cc3ccccc3)C(=O)N21` (configuration not stated), the GI50 in assay [1] is 19.4 µM (inactive); in assay [2] it was 24 µM (inactive); in assay [3], 27.9 µM (inactive); in [4], 25.9 µM (inactive); in assay [5] it was 24.9 µM (inactive); in [6], 37.2 µM (inactive). Further, the GI50 in assay [7] was 32.1 µM (inactive); in [8], 34.3 µM (inactive); in assay [9], 35.6 µM (inactive); in assay [10] it was 39.2 µM (inactive); in assay [11] it was 98.6 µM (inactive); in assay [12] it was 64.3 µM (inactive). In addition, the GI50 in assay [13] is 30.5 µM (inactive); in assay [14] it was 32.1 µM (inactive); in assay [15], 35.9 µM (inactive); in assay [16] it was 20.9 µM (inactive); in assay [17], 39.6 µM; in assay [18], 22.3 µM (inactive). For the same molecule, the results for the GI50 in assay [19] and in [20] were 27.9 µM (inactive) and 73.1 µM (inactive), respectively.
Take `Cc1cc(N(CCC#N)S(=O)(=O)c2ccccc2)ccc1/C=N\c1cccc(C(=O)O)c1`: the GI50 was > 100 µM (inactive) in assay [1]; > 100 µM (inactive) in assay [2]; 71 µM (inactive) in [3]; > 100 µM (inactive) in assay [4]; > 100 µM (inactive) in assay [5]; 83.6 µM (inactive) in assay [6]. Also, the GI50 is > 100 µM (inactive) in assay [7]; > 100 µM (inactive) in assay [8]; > 100 µM (inactive) in [9]; > 100 µM (inactive) in assay [10]; > 100 µM (inactive) in assay [11]; 53.3 µM (inactive) in assay [12]. Further, the GI50 was > 100 µM (inactive) in assay [13]; > 100 µM (inactive) in [14]; > 100 µM (inactive) in assay [15]; > 100 µM (inactive) in [16]; more than 100 µM in [17]; > 100 µM (inactive) in assay [18]. Besides, the GI50 in assay [19] and in assay [20] was > 100 µM (inactive) throughout.
Consider `NC1CCCCC1.O=P(O)(O)C(CSc1ccccc1)P(=O)(O)O`, for which the GI50 in [1], in assay [2], in [3], in assay [4], in [5] and in [6] was > 100 µM (inactive) throughout. Moreover, the GI50 in [7] was > 100 µM (inactive); in assay [8] it was > 100 µM (inactive); in assay [10], > 100 µM (inactive); in assay [11], > 100 µM (inactive); in [12], > 100 µM (inactive); in assay [13], 47.9 µM (inactive). The GI50 in assay [14] is > 100 µM (inactive); in [15], > 100 µM (inactive); in assay [16], > 100 µM (inactive); in assay [17] it was more than 100 µM; in assay [18], > 100 µM (inactive); in assay [19] it was > 100 µM (inactive). For the same molecule, in assay [20], the GI50 is > 100 µM (inactive).
For `FC(F)(F)C(C1=NC(C(F)(F)F)(C(F)(F)F)N=C(N2CCOCC2)O1)C(F)(F)F`, the GI50 in [1] is 20.2 µM (inactive); in assay [2] it was 25.9 µM (inactive); in [4] it was 22.4 µM (inactive); in assay [5], 31.3 µM (inactive); in assay [6] it was 11.9 µM (inactive); in [7] it was 16 µM (inactive). In addition, the GI50 in assay [8] is > 10 µM (inactive); in [9] it was 17.4 µM (inactive); in assay [10], 23.2 µM (inactive); in assay [11] it was 20.8 µM (inactive); in [12], 25.4 µM (inactive); in [13] it was 25.5 µM (inactive). Moreover, the GI50 in [14] was 15.3 µM (inactive); in assay [15] it was 14.2 µM (inactive); in assay [16], 20.8 µM (inactive); in assay [17], 26.1 µM; in [18] it was 5.57 µM (inactive); in [19], 22.9 µM (inactive). Further, the GI50 in assay [20] was 17.1 µM (inactive).
Consider `CN(C)c1n/c(=N/c2ccc(/N=c3\nc(N(C)C)ss3)cc2)ss1`, for which the GI50 in assay [1] was 11.5 µM (inactive); in assay [2], 32.4 µM (inactive); in assay [3], 11.7 µM (inactive); in assay [4] it was 35.4 µM (inactive); in [5], > 100 µM (inactive); in assay [6], 22.4 µM (inactive). Moreover, the GI50 in assay [7] was 39.8 µM (inactive); in assay [8], 12.4 µM (inactive); in assay [9], 36.9 µM (inactive); in assay [10], > 44.3 µM (inactive); in assay [11], 27.5 µM (inactive); in assay [12] it was 44 µM (inactive). In addition, the GI50 in [13] is 28.2 µM (inactive); in assay [14] it was 16.7 µM (inactive); in [15], > 40.7 µM (inactive); in [16] it was 9.68 µM (inactive); in assay [17], 27 µM; in [18], 12.4 µM (inactive). Also, the GI50 is 20 µM (inactive) in [19] and > 74.8 µM (inactive) in assay [20].
For the molecule `Cc1c2ccncc2cc2c1[nH]c1ccccc12`, the GI50 in assay [1] was 3.92 µM (inactive); in assay [2] it was 5.71 µM (inactive); in [3], 3.48 µM (inactive); in assay [4], 2.48 µM (inactive); in assay [5], 5.65 µM (inactive); in assay [6] it was 3.97 µM (inactive). The GI50 in assay [7] is 5.02 µM (inactive); in assay [8], 4.08 µM (inactive); in assay [10], 3.88 µM (inactive); in assay [11], 5.55 µM (inactive); in assay [12], 3.45 µM (inactive); in [13], 5.6 µM (inactive). Moreover, the GI50 in [14] was 3.44 µM (inactive); in assay [15], 2.42 µM (inactive); in [16], 3.07 µM (inactive); in assay [17], 4.2 µM; in assay [18], 3.41 µM (inactive); in assay [19], 6.12 µM (inactive). In addition, the GI50 in assay [20] is 4.4 µM (inactive).
As for `OCC1OC(n2ccc3cnccc32)CC1O` (configuration not stated), the GI50 in assay [1], in [2], in [3], in assay [4], in assay [5] and in assay [6] was > 100 µM (inactive) in each case. The GI50 in [7], in assay [8], in [9], in [10], in [11] and in [12] was > 100 µM (inactive) in each case. Moreover, the GI50 in [13] is > 100 µM (inactive); in [14], > 100 µM (inactive); in assay [15] it was > 100 µM (inactive); in assay [16], > 100 µM (inactive); in assay [17], more than 100 µM; in assay [18], > 100 µM (inactive). Besides, the GI50 in assay [19] and in assay [20] was > 100 µM (inactive) throughout.

For the origin of these results see ChEMBL document CHEMBL1201862, “PubChem BioAssay data set” (2004).
